# Test results: ChEMBL document CHEMBL3232855, “The discovery of N-((2H-tetrazol-5-yl)methyl)-4-((R)-1-((5r,8R)-8-(tert-butyl)-3-(3,5-dichlorophenyl)-2-oxo-1,4-diazaspiro[4.5]dec-3-en-1-yl)-4,4-dimethylpentyl)benzamide (SCH 900822): a potent and selective glucagon receptor antagonist” (J Med Chem, 2014)
# pIC50: −log10 of the molar value.
# Columns and labels:
# Glucagon receptor [1] = molecular target: Glucagon receptor (Mus musculus, UniProt Q61606); type: cell membranes, Liver, Membrane
# Description: Displacement of [125I]-glucagon from GCGR in mouse liver membranes after 60 mins by scintillation counting analysis
# Glucagon receptor [2] = molecular target: T1, Glucagon receptor (Homo sapiens, UniProt P47871); experiment: Antagonist activity at human GCGR expressed in CHO cells assessed as inhibition of glucagon-stimulated cAMP production preincubated for 30 mins followed by glucagon induction measured after 45 mins by LANCE assay; type: functional, cell-based
# [3] = molecular target: T2, Glucagon-like peptide 1 receptor (Homo sapiens, UniProt P43220); settings: CHO, at 10 µM
# Description: Antagonist activity at human GLP-1R expressed in CHO cells assessed as inhibition of GLP-1-stimulated cAMP production at 10 uM preincubated for 30 mins followed by GLP-1 induction measured after 45 mins by LANCE assay relative to control
# Glucagon receptor [4] = molecular target: T1, Glucagon receptor; experiment: biochemical; type: cell-based, CHO
# Description: Displacement of [125I]-glucagon from recombinant human GCGR expressed in CHO cells after 60 mins by scintillation counting analysis
# [5] = molecular target: T2, Glucagon-like peptide 1 receptor; experiment: Antagonist activity at human GLP-1R expressed in CHO cells assessed as inhibition of GLP-1-stimulated cAMP production preincubated for 30 mins followed by GLP-1 induction measured after 45 mins by LANCE assay; type: functional, cell-based
# Homo sapiens [6] = experiment: Antidiabetic activity in human assessed as inhibition of exogenous glucagon-stimulated glucose excursion at 1000 mg, po qd relative to control; type: functional
# Homo sapiens [7] = experiment: Antidiabetic activity in human assessed as inhibition of exogenous glucagon-stimulated glucose excursion at 200 mg, po qd relative to control; type: functional
# T1 sequence (P47871 whole entry): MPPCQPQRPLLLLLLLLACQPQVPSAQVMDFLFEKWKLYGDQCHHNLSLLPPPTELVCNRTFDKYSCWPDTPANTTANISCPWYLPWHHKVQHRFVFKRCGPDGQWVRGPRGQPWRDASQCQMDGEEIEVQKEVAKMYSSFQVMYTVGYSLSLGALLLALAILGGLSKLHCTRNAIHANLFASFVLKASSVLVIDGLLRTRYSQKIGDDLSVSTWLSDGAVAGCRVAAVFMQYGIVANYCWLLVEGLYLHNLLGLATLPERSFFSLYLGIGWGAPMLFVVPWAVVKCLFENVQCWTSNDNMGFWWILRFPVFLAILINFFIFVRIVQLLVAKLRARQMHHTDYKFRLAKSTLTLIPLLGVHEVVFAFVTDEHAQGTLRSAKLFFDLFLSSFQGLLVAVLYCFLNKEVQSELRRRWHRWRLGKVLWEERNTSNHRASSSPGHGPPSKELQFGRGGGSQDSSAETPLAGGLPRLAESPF
# T2 sequence (P43220 whole entry): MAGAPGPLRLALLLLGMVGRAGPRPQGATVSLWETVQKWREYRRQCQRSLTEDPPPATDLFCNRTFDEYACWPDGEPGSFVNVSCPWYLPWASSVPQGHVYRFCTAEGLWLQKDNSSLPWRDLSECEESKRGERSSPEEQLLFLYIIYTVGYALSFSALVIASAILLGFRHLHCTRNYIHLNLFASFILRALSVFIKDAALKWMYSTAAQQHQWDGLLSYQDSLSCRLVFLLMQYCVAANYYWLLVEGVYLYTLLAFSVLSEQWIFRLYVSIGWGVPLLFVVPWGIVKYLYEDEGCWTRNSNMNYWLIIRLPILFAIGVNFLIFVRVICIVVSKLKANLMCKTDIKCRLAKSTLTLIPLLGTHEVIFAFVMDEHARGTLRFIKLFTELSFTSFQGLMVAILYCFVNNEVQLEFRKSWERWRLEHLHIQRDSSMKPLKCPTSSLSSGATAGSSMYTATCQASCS
# Chain of Glucagon receptor (Mus musculus, UniProt Q61606) (Q61606 whole entry): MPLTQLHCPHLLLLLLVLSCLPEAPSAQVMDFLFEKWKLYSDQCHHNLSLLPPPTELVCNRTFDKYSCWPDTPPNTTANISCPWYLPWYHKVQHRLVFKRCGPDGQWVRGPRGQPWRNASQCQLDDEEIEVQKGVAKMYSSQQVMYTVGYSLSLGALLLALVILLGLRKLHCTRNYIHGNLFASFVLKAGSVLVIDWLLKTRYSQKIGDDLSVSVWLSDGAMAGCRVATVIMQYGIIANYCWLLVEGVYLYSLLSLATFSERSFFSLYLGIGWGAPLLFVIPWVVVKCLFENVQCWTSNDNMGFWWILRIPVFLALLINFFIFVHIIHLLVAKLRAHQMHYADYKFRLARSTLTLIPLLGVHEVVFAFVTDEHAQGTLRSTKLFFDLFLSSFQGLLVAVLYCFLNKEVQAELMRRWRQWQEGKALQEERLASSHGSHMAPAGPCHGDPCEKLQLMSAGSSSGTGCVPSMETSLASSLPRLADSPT
Structure (SMILES),pIC50 (Glucagon receptor [1]),pIC50 (Glucagon receptor [2]),inhibition [3] [%],pIC50 (Glucagon receptor [4]),pIC50 [5],inhibition (INH) (Homo sapiens [6]) [%],inhibition (INH) (Homo sapiens [7]) [%]
CC(C)(C)[C@H]1CC[C@]2(CC1)N=C(c1ccc(F)cc1)C(=O)N2Cc1ccc(C(=O)NCCC(=O)O)cc1,,5.72,< 50,,,,
CC(C)(C)[C@H]1CC[C@]2(CC1)N=C(c1ccccc1)C(=O)N2Cc1ccc(C(=O)NCCC(=O)O)cc1,,5.49,< 50,,,,
CC(C)(C)[C@H]1CC[C@]2(CC1)N=C(c1ccccc1F)C(=O)N2Cc1ccc(C(=O)NCCC(=O)O)cc1,< 5.00,6.14,< 50,< 5.00,,,
CC(C)(C)[C@H]1CC[C@]2(CC1)N=C(c1ccc(Cl)c(Cl)c1)C(=O)N2Cc1ccc(C(=O)NCCC(=O)O)cc1,,5.80,< 50,,,,
C[C@H](c1ccc(C(=O)NC[C@@H](O)C(=O)O)cc1)N1C(=O)C(c2cc(Cl)cc(Cl)c2)=N[C@]12CC[C@@H](C(C)(C)C)CC2,5.96,< 5.00,,6.72,< 5.00,,
CC(C)(C)[C@H]1CC[C@]2(CC1)N=C(c1cccc(C(F)(F)F)c1)C(=O)N2Cc1ccc(C(=O)NCCC(=O)O)cc1,5.00,6.29,< 50,,,,
CCCCC[C@H](c1ccc(C(=O)NCc2nn[nH]n2)cc1)N1C(=O)C(c2cc(Cl)cc(Cl)c2)=N[C@]12CC[C@@H](C(C)(C)C)CC2,6.51,6.89,,7.62,< 5.00,,
CC(C)(C)[C@H]1CC[C@]2(CC1)N=C(c1ccc(C(F)(F)F)cc1)C(=O)N2Cc1ccc(C(=O)NCCC(=O)O)cc1,5.02,6.10,< 50,,,,
C[C@H](c1ccc(C(=O)NCCC(=O)O)cc1)N1C(=O)C(c2cccc(Cl)c2)=N[C@]12CC[C@@H](C(C)(C)C)CC2,5.48,6.32,,6.89,5.41,,
CC(C)(C)[C@H]1CC[C@]2(CC1)N=C(c1cc(Cl)cc(Cl)c1)C(=O)N2Cc1ccc(C(=O)NCCC(=O)O)cc1,< 5.00,6.54,< 50,6.28,,,
C[C@H](c1ccc(C(=O)NCCC(=O)O)cc1)N1C(=O)C(c2ccccc2Cl)=N[C@]12CC[C@@H](C(C)(C)C)CC2,5.27,5.54,,6.28,< 5.00,,
C[C@H](c1ccc(C(=O)NC[C@H](O)C(=O)O)cc1)N1C(=O)C(c2cc(Cl)cc(Cl)c2)=N[C@]12CC[C@@H](C(C)(C)C)CC2,5.82,< 5.00,,6.80,< 5.00,,
C[C@H](c1ccc(C(=O)NCCC(=O)O)cc1)N1C(=O)C(c2cc(F)cc(Cl)c2)=N[C@]12CC[C@@H](C(C)(C)C)CC2,6.09,6.96,,8.22,5.25,,
CC(C)(C)CC[C@H](c1ccc(C(=O)NCc2nn[nH]n2)cc1)N1C(=O)C(c2cccc(C(F)(F)F)c2)=N[C@]12CC[C@@H](C(C)(C)C)CC2,6.85,6.74,,7.89,< 5.00,,
CC[C@H](c1ccc(C(=O)NCc2nn[nH]n2)cc1)N1C(=O)C(c2cc(Cl)cc(Cl)c2)=N[C@]12CC[C@@H](C(C)(C)C)CC2,6.43,6.57,,7.09,< 5.00,,
C[C@H](c1ccc(C(=O)NCCC(=O)O)cc1)N1C(=O)C(c2cccc(F)c2)=N[C@]12CC[C@@H](C(C)(C)C)CC2,5.36,6.25,,6.31,< 5.00,,
CC(C)(C)[C@H]1CC[C@]2(CC1)N=C(c1cc(Cl)cc(Cl)c1)C(=O)N2[C@@H](c1ccc(C(=O)NCc2nn[nH]n2)cc1)C1CC1,6.12,6.27,,7.14,< 5.00,,
COc1ccc2cc(-c3cc(-c4cc(Cl)cc(Cl)c4)nn3[C@@H](C)c3ccc(C(=O)NCCC(=O)O)cc3)ccc2c1 [MK-0893],,,,,,100,59
"CCCc1c(C(C)C)cc(C(C)C)c(C(C)O)c1-c1ccc(F)cc1 (single isomer, unassigned; (+))",,,,,,100,59
C[C@H](c1ccc(C(=O)NCCC(=O)O)cc1)N1C(=O)C(c2ccc(F)cc2)=N[C@]12CC[C@@H](C(C)(C)C)CC2,5.60,6.37,,7.07,5.11,,

# Continued by rising pIC50 (Glucagon receptor [2]), values first:
pIC50 (Glucagon receptor [1]),pIC50 (Glucagon receptor [2]),inhibition [3] [%],pIC50 (Glucagon receptor [4]),pIC50 [5],Structure (SMILES),inhibition (INH) (Homo sapiens [6]) [%],inhibition (INH) (Homo sapiens [7]) [%]
,5.17,< 50,,,CC(C)(C)[C@H]1CC[C@]2(CC1)N=C(c1ccccc1Cl)C(=O)N2Cc1ccc(C(=O)NCCC(=O)O)cc1,,
,5.72,< 50,,,CC(C)(C)[C@H]1CC[C@]2(CC1)N=C(c1ccc(OC(F)(F)F)cc1)C(=O)N2Cc1ccc(C(=O)NCCC(=O)O)cc1,,
< 5.00,5.85,< 50,6.03,,CC(C)(C)[C@H]1CC[C@]2(CC1)N=C(c1ccc(Cl)cc1)C(=O)N2Cc1ccc(C(=O)NCCC(=O)O)cc1,,
7.02,5.92,,7.66,< 5.00,CC(C)(C)CC[C@H](c1ccc(C(=O)NCc2nn[nH]n2)cc1)N1C(=O)C(c2cnccc2C(F)(F)F)=N[C@]12CC[C@@H](C(C)(C)C)CC2,,
< 5.00,6.11,< 50,6.11,,CC(C)(C)[C@H]1CC[C@]2(CC1)N=C(c1cccc(Cl)c1)C(=O)N2Cc1ccc(C(=O)NCCC(=O)O)cc1,,
6.38,6.12,,7.82,< 5.00,CC(C)C[C@H](c1ccc(C(=O)NCc2nn[nH]n2)cc1)N1C(=O)C(c2cc(Cl)cc(Cl)c2)=N[C@]12CC[C@@H](C(C)(C)C)CC2,,
5.40,6.20,,6.21,< 5.00,C[C@H](c1ccc(C(=O)NCCC(=O)O)cc1)N1C(=O)C(c2cccc(Cl)c2F)=N[C@]12CC[C@@H](C(C)(C)C)CC2,,
< 5.00,6.46,,5.96,< 5.00,C[C@H](c1ccc(C(=O)NCCC(=O)O)cc1)N1C(=O)C(c2ccccc2F)=N[C@]12CC[C@@H](C(C)(C)C)CC2,,
5.77,6.47,,7.25,< 5.00,C[C@H](c1ccc(C(=O)NCCC(=O)O)cc1)N1C(=O)C(c2cccc(C3CC3)c2)=N[C@]12CC[C@@H](C(C)(C)C)CC2,,
5.66,6.55,,6.14,5.20,C[C@H](c1ccc(C(=O)NCCC(=O)O)cc1)N1C(=O)C(c2cccc(C(F)(F)F)c2)=N[C@]12CC[C@@H](C(C)(C)C)CC2,,
6.40,6.74,9,6.89,< 5.00,C[C@H](c1ccc(C(=O)NCc2nnn[nH]2)cc1)N1C(=O)C(c2cc(Cl)cc(Cl)c2)=N[C@]12CC[C@@H](C(C)(C)C)CC2,,
6.72,6.80,,8.15,< 5.00,CC(C)(C)CC[C@H](c1ccc(C(=O)NCc2nn[nH]n2)cc1)N1C(=O)C(c2ccc(C(F)(F)F)cc2)=N[C@]12CC[C@@H](C(C)(C)C)CC2,,
6.85,6.96,,7.64,< 5.00,CC(C)(C)CC[C@H](c1ccc(C(=O)NCc2nn[nH]n2)cc1)N1C(=O)C(c2cc(F)cc(F)c2)=N[C@]12CC[C@@H](C(C)(C)C)CC2,,
6.28,7.32,,7.80,5.70,CC(C)(C)CC[C@H](c1ccc(C(=O)NCCC(=O)O)cc1)N1C(=O)C(c2cc(Cl)cc(Cl)c2)=N[C@]12CC[C@@H](C(C)(C)C)CC2,,
6.80,7.38,,8.00,< 5.00,CC(C)(C)CC[C@H](c1ccc(C(=O)NCc2nn[nH]n2)cc1)N1C(=O)C(c2cc(F)cc(Cl)c2)=N[C@]12CC[C@@H](C(C)(C)C)CC2,,
